This passage reports inhibition and IC50 results from patent publication US5475014A, “Oxazolidone derivative” (Eisai Co., Ltd., priority 1991, dated 1995).

Structures are written as SMILES.

Common to all, as to format: biochemical, rat (male Wistar)
The target in assay [1] is T1, MAO-B (Rattus norvegicus, UniProt P19643).
T1 construct: suspension of 1 part by volume of the forebrains of male Wistar rats; from tissue; host or cells: forebrain of male Wistar rats, suspension in potassium phosphate buffer
T1 sequence (P19643 1-520): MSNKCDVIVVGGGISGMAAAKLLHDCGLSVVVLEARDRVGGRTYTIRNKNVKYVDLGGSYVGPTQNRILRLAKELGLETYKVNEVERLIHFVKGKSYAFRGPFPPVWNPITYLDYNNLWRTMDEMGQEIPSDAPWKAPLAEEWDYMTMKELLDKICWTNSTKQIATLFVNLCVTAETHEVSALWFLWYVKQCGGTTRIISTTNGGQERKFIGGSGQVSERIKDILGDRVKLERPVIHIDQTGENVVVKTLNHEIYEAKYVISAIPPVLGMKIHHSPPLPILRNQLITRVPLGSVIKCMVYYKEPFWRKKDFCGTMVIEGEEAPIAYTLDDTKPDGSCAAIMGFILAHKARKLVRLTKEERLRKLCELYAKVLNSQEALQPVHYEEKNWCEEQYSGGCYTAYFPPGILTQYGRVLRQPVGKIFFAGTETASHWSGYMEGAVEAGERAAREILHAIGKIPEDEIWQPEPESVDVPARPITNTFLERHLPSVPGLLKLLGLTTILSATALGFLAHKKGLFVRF
In words: MAO-B inhibition activity with rat forebrain (14C-PEA substrate). The note with it: 10^-5 M, read-out: Inhibiting activity MAO-B (at 10^-5 M).

The target of the next assay is T2, MAO-A (Rattus norvegicus, UniProt P21396).
T2 construct: suspension of 1 part by volume of the forebrains of male Wistar rats; from tissue; host or cells: forebrain of male Wistar rats, suspension in potassium phosphate buffer
T2 sequence (P21396 1-526): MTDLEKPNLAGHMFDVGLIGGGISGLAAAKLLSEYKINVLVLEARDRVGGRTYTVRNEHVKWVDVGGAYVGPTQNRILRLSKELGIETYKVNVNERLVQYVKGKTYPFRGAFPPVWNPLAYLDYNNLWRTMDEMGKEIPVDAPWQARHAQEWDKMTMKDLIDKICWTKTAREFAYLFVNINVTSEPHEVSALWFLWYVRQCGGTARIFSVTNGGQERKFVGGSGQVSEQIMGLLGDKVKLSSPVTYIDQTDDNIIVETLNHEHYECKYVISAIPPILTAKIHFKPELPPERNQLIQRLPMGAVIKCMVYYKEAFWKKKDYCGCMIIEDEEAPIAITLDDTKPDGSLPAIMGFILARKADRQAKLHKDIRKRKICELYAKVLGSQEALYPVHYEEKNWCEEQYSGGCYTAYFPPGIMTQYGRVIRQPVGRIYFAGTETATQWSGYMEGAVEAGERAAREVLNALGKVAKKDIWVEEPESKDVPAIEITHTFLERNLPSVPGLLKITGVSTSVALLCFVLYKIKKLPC
In words: MAO-A inhibition activity with rat forebrain (14C-5-HT substrate). The note with it: for inhibition at 0.1 µM: 10^-7 M, read-out: Inhibiting activity MAO-A (% at 10^-7 M). Here is the method:
(§1) Determination of MAO inhibition activity with the use of rat forebrain:
(§2) The MAO inhibition activity was determined by a method of Prada et al. (J. Pharmacol. Exp. Ther., 248, 400-414 (1989)).
(§3) The enzyme reaction was conducted in 300 μl of a solution having the following composition:
(§4) ^14 C-labelled enzyme substrate
(§5) The enzyme source used was a suspension of 1 part by volume of the forebrains of male Wistar rats in 5 parts by volume of a 0.1M potassium phosphate buffer (pH 7.4). The enzyme source was mixed with the test compound and the mixture was prewarmed at 37° C. for 10 min. Then the enzyme substrate was added thereto to initiate the enzyme reaction. After 10 min, 200 μl of 2N hydrochloric acid was added to terminate the reaction.
(§6) As the substrates for MAO-A and MAO-B, 5-HT (serotonin) and PEA (β-phenethylamine) each labelled with ^14 C were used, respectively. The specific radioactivities of 5-HT and PEA were regulated to 11.1 MBq/mmol and 29.6 MBq/mmol, respectively, and the concentrations of them were 200 μM and 20 μM, respectively, in the reaction.
(§7) The test compound was dissolved in distilled water so that an intended concentration could be obtained in the enzyme reaction. When the test compound was insoluble in water, it was dissolved in dimethyl sulfoxide to obtain a 10% solution.
(§8) Diethyl ether and n-heptane were used as […], respectively. After the termination of the enzyme reaction, 3 ml of the solvent was added to the reaction mixture and shaken for 10 min. After centrifugation at 3,000 rpm for about 10 min, the lower aqueous layer was frozen in dry ice/acetone. The upper organic layer was recovered by decantation and the radioactivity thereof was determined with a liquid scintillation counter.
(§9) The inhibiting activities of the test compounds against MAO A and MAO B are given at the concentrations of 10^-7 M and 10^-6 M or by IC50 values.

The target in assay [2] is T1, MAO-B. In words: MAO-B inhibition activity with rat forebrain (14C-PEA substrate). The note with it: 10^-6 M, read-out: Inhibiting activity MAO-B (% at 10^-6 M). Here is the method:
as §1, §2, §3, §4, §5, §6, §7, §8, §9

For `COCC1CN(c2ccc3nc(C(C)(O)CCC#N)sc3c2)C(=O)O1` (stereo not drawn) [Example 37], the inhibition at 10 µM at MAO-B [1] is 35%. In addition, the IC50 – broadly, the concentration that inhibits the measured activity by half – on MAO-A (5-HT 200 μM, read-out: Inhibiting activity MAO-A, IC50) came out at 45 nM.
As for `COCC1CN(c2ccc3nc(N(CCC#N)CCC#N)sc3c2)C(=O)O1` (stereo not drawn) [Example 43], the inhibition at 1 µM at MAO-A (10^-6 M, read-out: Inhibiting activity MAO-A (at 10^-6 M)) came to 87%; at MAO-B [2], 14%.
In the case of `COCC1CN(c2ccc3sc(C)nc3c2)C(=O)O1` (stereo not drawn) [Example 44], the inhibition at 0.1 µM on MAO-A was 6%. In addition, the inhibition at 1 µM on MAO-B [2] turned out to be 4%.
Regarding `COCC1CN(c2ccc3sc(NC(=O)CC#N)nc3c2)C(=O)O1` (stereo not drawn) [Example 45], the inhibition at 0.1 µM on MAO-A came out at 40%. For the same compound, the inhibition at 1 µM at MAO-B [2] amounted to 10%.
In the same order, the values of `COCC1CN(c2ccc3sc(C(O)CCC#N)nc3c2)C(=O)O1` (stereo not drawn) [Example 46] are 7% and 3%.
Turning to `COCC1CN(c2ccc3sc(CCCC#N)nc3c2)C(=O)O1` (stereo not drawn) [Example 47], the inhibition at 0.1 µM at MAO-A was 52%. Further, the inhibition at 1 µM at MAO-B [2] worked out at 9%.
